Source: US20250340591A1, “COMPOSITION FOR PREVENTING OR TREATING INFLAMMATORY BOWEL DISEASE CONTAINING NOVEL COMPOUND” (ANYGEN CO., LTD., priority 2021, published 2025)
Square brackets hold non-standard residues; d marks the D form. Peptide text beside a SMILES is read from it. * marks the point of attachment. His(Trt) = N[C@@H](Cc1cn(C(c2ccccc2)(c2ccccc2)c2ccccc2)cn1)C(=O)O; dHis(Trt) = N[C@H](Cc1cn(C(c2ccccc2)(c2ccccc2)c2ccccc2)cn1)C(=O)O; His(τ-CHPh2) = N[C@@H](Cc1cn(C(c2ccccc2)c2ccccc2)cn1)C(=O)O; Biotin = O=C1N[C@H]2[C@H](CS[C@H]2CCCCC(=O)*)N1; sY = N[C@@H](Cc1ccc(OS(=O)(=O)O)cc1)C(=O)O; Bip = N[C@@H](Cc1ccc(-c2ccccc2)cc1)C(=O)O; dPhe(4-Cl) = N[C@H](Cc1ccc(Cl)cc1)C(=O)O; dPhe(4-Me) = Cc1ccc(C[C@@H](N)C(=O)O)cc1; Phe(4-Me) = Cc1ccc(C[C@H](N)C(=O)O)cc1; dPhe(4-F) = N[C@H](Cc1ccc(F)cc1)C(=O)O; Myristoyl = CCCCCCCCCCCCCC(=O)*; Octanoyl = CCCCCCCC(=O)*

These molecules were tested against T1, GPR39 (Homo sapiens, UniProt O43194) (assay: luciferase assay system (SRE luciferase reporter gene, CV-1 cells expressing GPR39)).
T1 sequence (O43194 1-453): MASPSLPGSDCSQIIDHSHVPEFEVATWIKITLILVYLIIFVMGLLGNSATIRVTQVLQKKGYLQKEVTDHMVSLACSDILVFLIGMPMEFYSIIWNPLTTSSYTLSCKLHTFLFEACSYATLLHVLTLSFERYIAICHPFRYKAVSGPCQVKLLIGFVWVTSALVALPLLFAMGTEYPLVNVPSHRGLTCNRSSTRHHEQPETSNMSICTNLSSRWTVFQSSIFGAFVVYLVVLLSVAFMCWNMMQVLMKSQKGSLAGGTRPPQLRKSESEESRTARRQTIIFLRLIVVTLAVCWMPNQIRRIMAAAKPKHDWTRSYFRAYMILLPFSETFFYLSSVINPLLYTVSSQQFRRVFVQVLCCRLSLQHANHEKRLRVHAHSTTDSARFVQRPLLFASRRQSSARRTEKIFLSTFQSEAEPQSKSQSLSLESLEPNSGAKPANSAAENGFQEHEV
Type: cell-based
Set-up: expressed in transfected cells; host or cells: CV-1 fibroblast cell line (Korea Cell Line Bank), adenoviral transduction at 50 MOI

`CCCCCCCC(=O)NCCCC[C@H](NC(=O)[C@@H](N)Cc1cn(C23CC4CC(CC(C4)C2)C3)cn1)C(=O)N[C@@H](Cc1ccccc1)C(=O)N[C@@H](Cc1ccc(O)cc1)C(=O)O` [HKFY-23, N2-(Nt-(adamantan-1-yl)-L-histidyl)-N6-octanoyl-L-lysyl-L-phenylalanyl-L-tyrosine] and `CCCCCCCC(=O)NCCCC[C@H](NC(=O)[C@@H](N)CC1=CNCN1CCC1CCCCC1)C(=O)N[C@@H](Cc1ccccc1)C(=O)N[C@@H](Cc1ccc(O)cc1)C(=O)O` [HKFY-7, N2-((S)-2-amino-3-(3-(2-cyclohexylethyl)-2,3-dihydro-1H-imidazol-4-yl)propanoyl)-N6-octanoyl-L-lysyl-L-phenylalanyl-L-tyrosine] are within error of each other in “ECmax (−fold induction over basal)” value: 15 ± 1.37 fold induction over basal for the first, 16 ± 2.2 fold induction over basal for the second.

`CCCCCCCC(=O)NCCCC[C@H](NC(=O)[C@H](N)Cc1cn(C(c2ccccc2)(c2ccccc2)c2ccccc2)cn1)C(=O)N[C@H](Cc1ccc(Cl)cc1)C(=O)N[C@H](Cc1ccc(O)cc1)C(=O)O` [HKFY-14, ((R)-2-((S)-2-((R)-2-amino-3-(1-trityl-1H-imidazol-4-yl)propanamido)-6-octanamidohexanamido)-3-(4-chlorophenyl)propanoyl)-D-tyrosine] (H-[dHis(Trt)]K(Octanoyl)[dPhe(4-Cl)][dY]-OH) and `CCCCCCCC(=O)NCCCC[C@H](NC(=O)[C@@H](N)Cc1cn(C(c2ccccc2)(c2ccccc2)c2ccccc2)cn1)C(=O)N[C@H](Cc1ccc(Cl)cc1)C(=O)N[C@H](Cc1ccc(O)cc1)C(=O)O` [HKFY-15, ((R)-2-((S)-2-((S)-2-amino-3-(1-trityl-1H-imidazol-4-yl)propanamido)-6-octanamidohexanamido)-3-(4-chlorophenyl)propanoyl)-D-tyrosine] (H-[His(Trt)]K(Octanoyl)[dPhe(4-Cl)][dY]-OH) are within error of each other in “ECmax (−fold induction over basal)” value: 20.9 ± 1.4 fold induction over basal for the first, 24.7 ± 2.6 fold induction over basal for the second.

Going from `CCCCCCCC(=O)NCCCC[C@H](NC(=O)[C@@H](N)Cc1cn(C(c2ccccc2)(c2ccccc2)c2ccccc2)cn1)C(=O)N[C@@H](Cc1ccccc1)C(=O)N[C@@H](Cc1ccc(O)cc1)C(=O)N[C@@H](Cc1c[nH]cn1)C(=O)N[C@@H](CCC(N)=O)C(=O)N[C@@H](CCC(N)=O)C(=O)N[C@@H](C)C(=O)N[C@@H](CCCNC(=N)N)C(=O)N[C@@H](Cc1ccccc1)C(N)=O` [HKFY-42, (S)-2-((2S,5S,8S,11S)-2-((1H-imidazol-4-yl)methyl)-11-((S)-2-amino-3-(1-trityl-1H-imidazol-4-yl)propanamido)-8-benzyl-5-(4-hydroxybenzyl)-4,7,10,17-tetraoxo-3,6,9,16-tetraazatetracosanamido)-N1-((S)-5-amino-1-(((S)-1-(((S)-1-(((S)-1-amino-1-oxo-3-phenylpropan-2-yl)amino)-5-guanidino-1-oxopentan-2-yl)amino)-1-oxopropan-2-yl)amino)-1,5-dioxopentan-2-yl)pentanediamide] (H-[His(Trt)]K(Octanoyl)FYHQQARF-NH2) to `C[C@H](NC(=O)[C@H](CCC(N)=O)NC(=O)[C@H](CCC(N)=O)NC(=O)[C@H](CC(=O)O)NC(=O)[C@H](Cc1ccc(O)cc1)NC(=O)[C@H](Cc1ccccc1)NC(=O)[C@@H](N)Cc1cn(C(c2ccccc2)(c2ccccc2)c2ccccc2)cn1)C(=O)N[C@@H](CCCNC(=N)N)C(=O)N[C@@H](Cc1ccccc1)C(N)=O` [HKFY-52, (6S,9S,12S,15S,18S)-1-amino-6-(((S)-1-amino-1-oxo-3-phenylpropan-2-yl)carbamoyl)-18-((S)-2-((S)-2-((S)-2-amino-3-(1-trityl-1H-imidazol-4-yl)propanamido)-3-phenylpropanamido)-3-(4-hydroxyphenyl)propanamido)-12,15-bis(3-amino-3-oxopropyl)-1-imino-9-methyl-8,11,14,17-tetraoxo-2,7,10,13,16-pentaazaicosan-20-oic acid] (H-[His(Trt)]FYDQQARF-NH2), the “ECmax (−fold induction over basal)” value rises from 11.8 ± 0.02 fold induction over basal to 15.5 ± 2.2 fold induction over basal.

Compared with `CCCCCCCC(=O)NCCCC[C@H](NC(=O)[C@@H](N)Cc1cn(C(c2ccccc2)c2ccccc2)cn1)C(=O)N[C@H](Cc1ccc(C)cc1)C(=O)N[C@@H](Cc1ccc(OS(=O)(=O)O)cc1)C(=O)O` [HKFY-35, (S)-2-((R)-2-((S)-2-((S)-2-amino-3-(1-benzhydryl-1H-imidazol-4-yl)propanamido)-6-octanamidohexanamido)-3-(p-tolyl)propanamido)-3-(4-(sulfooxy)phenyl)propanoic acid] (H-[His(τ-CHPh2)]K(Octanoyl)[dPhe(4-Me)][sY]-OH), `CCCCCCCC(=O)NCCCC[C@H](NC(=O)[C@@H](N)Cc1cn([C@H](c2ccccc2)c2ccc(C)cc2)cn1)C(=O)N[C@@H](Cc1ccccc1)C(=O)N[C@@H](Cc1ccc(O)cc1)C(=O)O` [HKFY-22, N6-octanoyl-N2-(Nt-((R)-phenyl(p-tolyl)methyl)-L-histidyl)-L-lysyl-L-phenylalanyl-L-tyrosine] is higher in “ECmax (−fold induction over basal)” value: 18.9 ± 0.41 fold induction over basal for the first, 21.3 ± 1.8 fold induction over basal for the second.

Compared with `CCCCCCCC(=O)NCCCC[C@H](NC(=O)[C@H](Cc1cn(C(c2ccccc2)(c2ccccc2)c2ccccc2)cn1)NC(=O)CCCC[C@@H]1SC[C@@H]2NC(=O)N[C@@H]21)C(=O)N[C@@H](Cc1ccc(-c2ccccc2)cc1)C(=O)N[C@@H](Cc1ccc(O)cc1)C(=O)O` [HKFY-45, ((S)-3-([1,1′-biphenyl]-4-yl)-2-((S)-6-octanamido-2-((S)-2-(5-((3aS,4S,6aR)-2-oxohexahydro-1H-thieno[3,4-d]imidazol-4-yl)pentanamido)-3-(1-trityl-1H-imidazol-4-yl)propanamido)hexanamido)propanoyl)-L-tyrosine] (Biotin-[His(Trt)]K(Octanoyl)[Bip]Y-OH), `CCCCCCCC(=O)NCCCC[C@H](NC(=O)[C@H](Cc1cn(C(c2ccccc2)c2ccccc2)cn1)NC(=O)CCCC[C@@H]1SC[C@@H]2NC(=O)N[C@@H]21)C(=O)N[C@@H](Cc1ccc(C)cc1)C(=O)N[C@@H](Cc1ccc(O)cc1)C(=O)O` [HKFY-72, ((S)-2-((S)-2-((S)-3-(1-benzhydryl-1H-imidazol-4-yl)-2-(5-((3aS,4S,6aR)-2-oxohexahydro-1H-thieno[3,4-d]imidazol-4-yl)pentanamido)propanamido)-6-octanamidohexanamido)-3-(p-tolyl)propanoyl)-L-tyrosine] (Biotin-[His(τ-CHPh2)]K(Octanoyl)[Phe(4-Me)]Y-OH) is lower in “ECmax (−fold induction over basal)” value: 21 ± 2.58 fold induction over basal for the first, 10.4 ± 1.12 fold induction over basal for the second.

`CCCCCCCC(=O)NCCCC[C@H](NC(=O)[C@@H](N)Cc1cn(C(c2ccccc2)(c2ccccc2)c2ccccc2)cn1)C(=O)N[C@@H](Cc1ccccc1)C(=O)N[C@@H](Cc1ccc(O)cc1)C(=O)N[C@@H](Cc1c[nH]c2ccccc12)C(=O)O` [HKFY-44, N6-octanoyl-N2-(Nt-trityl-L-histidyl)-L-lysyl-L-phenylalanyl-L-tyrosyl-L-tryptophan] (H-[His(Trt)]K(Octanoyl)FYW-OH) and `CCCCCCCC(=O)NCCCC[C@H](NC(=O)[C@@H](N)Cc1cn(C(c2ccccc2)(c2ccccc2)c2ccccc2)cn1)C(=O)N[C@H](Cc1ccc(F)cc1)C(=O)N[C@@H](Cc1ccc(O)cc1)C(=O)O` [HKFY-28, ((R)-2-((S)-2-((S)-2-amino-3-(1-trityl-1H-imidazol-4-yl)propanamido)-6-octanamidohexanamido)-3-(4-fluorophenyl)propanoyl)-L-tyrosine] (H-[His(Trt)]K(Octanoyl)[dPhe(4-F)]Y-OH) are within error of each other in “ECmax (−fold induction over basal)” value: 20 ± 0.47 fold induction over basal for the first, 22.95 ± 2.58 fold induction over basal for the second.

Compared with `CCCCCCCCCCCCCC(=O)NCCCC[C@H](NC(=O)[C@@H](N)Cc1cn(C(c2ccccc2)(c2ccccc2)c2ccccc2)cn1)C(=O)N[C@@H](Cc1ccccc1)C(=O)N[C@@H](Cc1ccc(O)cc1)C(=O)O` [HKFY-26, N6-tetradecanoyl-N2-(Nt-trityl-L-histidyl)-L-lysyl-L-phenylalanyl-L-tyrosine] (H-[His(Trt)]K(Myristoyl)FY-OH), `C=C(CCCCCCC)NCCCC[C@H](NC(=O)[C@@H](N)Cc1cn(C(c2ccccc2)(c2ccccc2)c2ccccc2)cn1)C(=O)N[C@H](Cc1ccc(Cl)cc1)C(=O)N[C@@H](Cc1ccc(O)cc1)C(=O)O` [HKFY-13, ((R)-2-((S)-2-((S)-2-amino-3-(1-trityl-1H-imidazol-4-yl)propanamido)-6-(non-1-en-2-ylamino)hexanamido)-3-(4-chlorophenyl)propanoyl)-L-tyrosine] is higher in “ECmax (−fold induction over basal)” value: 19.82 ± 0.57 fold induction over basal for the first, 25.7 ± 2.4 fold induction over basal for the second.

In the case of `CCCCCCCC(=O)NCCCC[C@H](NC(=O)[C@@H](N)CC1=CN(CCc2ccccc2)CN1CCc1ccccc1)C(=O)N[C@@H](Cc1ccccc1)C(=O)N[C@@H](Cc1ccc(O)cc1)C(=O)O` [HKFY-6, N2-((S)-2-amino-3-(1,3-diphenethyl-2,3-dihydro-1H-imidazol-4-yl)propanoyl)-N6-octanoyl-L-lysyl-L-phenylalanyl-L-tyrosine], the “ECmax (−fold induction over basal)” value is reported as 15 ± 2.12 fold induction over basal.
